# Earlier results in patent publication US20070212388A1, “COMPOSITIONS COMPRISING POROUS ARTICLES AND USES IN IMPLANTABLE MEDICAL DEVICES” (Sahajanand Medical Technologies Pvt. Ltd., priority 2006, published 2007).
# Conditions: for solubility in water: general statement, no test described
solubility in water,water solubility relative to genistein (compared with genistein),Compound
practically insoluble in water,,"O=c1c(-c2ccc(O)cc2)coc2cc(O)cc(O)c12 [Genistein, 5,7-dihydroxy-3-(4-hydroxyphenyl)-4H-1-benzopyran-4-one]"
,greater water solubility than genistein,O=c1c(-c2ccc(O)cc2)coc2cc(O[C@@H]3O[C@H](CO)[C@@H](O)[C@H](O)[C@H]3O)cc(O)c12 [Genistin]
practically insoluble in water,,"O=c1c(O)c(-c2ccc(O)c(O)c2)oc2cc(O)cc(O)c12 [Quercetin, 2-(3,4-dihydroxyphenyl)-3,5,7-trihydroxy-4H-1-benzopyran-4-one]"
